Patent US20180199572A1, “Herbicidal Composition Comprising Cinmethylin and Metolachlor or S-Metolachlor” (BASF Agro B.V., priority 2015, published 2018)

Legend:
Test in all cases: Greenhouse pre-emergence herbicidal activity
Type in all cases: in vivo
Conditions in all cases: 20 DAT
[1] = tested on: Lolium multiflorum (LOLMU)
[2] = tested on: Abutilon theophrasti (ABUTH)
[3] = tested on: Anthemis arvensis (ANTAR)
[4] = tested on: Stellaria media (STEME)
[5] = tested on: Setaria viridis (SETVI)
[6] = tested on: Alopecurus myosuroides (ALOMY)
[7] = tested on: Chenopodium album (CHEAL)
[8] = tested on: Polygonum convolvulus (POLCO)
[9] = tested on: Avena fatua (AVEFA)
[10] = solo herbicide A, use rate 125 g ai/ha
[11] = solo herbicide A, use rate 31.25 g ai/ha
[12] = solo herbicide A, use rate 62.5 g ai/ha
[13] = solo S-metolachlor, use rate 250 g ai/ha
[14] = solo S-metolachlor, use rate 62.5 g ai/ha
[15] = solo S-metolachlor, use rate 125 g ai/ha

(±)-2-exo-(2-Methylbenzyloxy)-1-methyl-4-isopropyl-7-oxabicyclo[2.2.1]heptane [herbicide A]
herbicidal activity (%) [1, 10]: 85% | herbicidal activity (%) [2, 11]: 30% | herbicidal activity (%) [2, 12]: 60% | herbicidal activity (%) [3, 11]: 0% | herbicidal activity (%) [3, 12]: 0% | herbicidal activity (%) [3, 10]: 0% | herbicidal activity (%) [4, 12]: 30% | herbicidal activity (%) [4, 10]: 40% | herbicidal activity (%) [5, 11]: 90% | herbicidal activity (%) [6, 12]: 98% | herbicidal activity (%) [6, 10]: 98% | herbicidal activity (%) [7, 11]: 40% | herbicidal activity (%) [8, 10]: 0% | herbicidal activity (%) ([8]; solo herbicide A, use rate 250 g ai/ha): 15% | herbicidal activity (%) [9, 10]: 25%

CCc1cccc(C)c1N(C(=O)CCl)[C@@H](C)COC [S-metolachlor]
herbicidal activity (%) [1, 13]: 60% | herbicidal activity (%) [2, 14]: 0% | herbicidal activity (%) [2, 15]: 0% | herbicidal activity (%) [3, 14]: 0% | herbicidal activity (%) [3, 15]: 0% | herbicidal activity (%) [3, 13]: 25% | herbicidal activity (%) [4, 15]: 35% | herbicidal activity (%) [4, 13]: 65% | herbicidal activity (%) [5, 14]: 80% | herbicidal activity (%) [6, 15]: 40% | herbicidal activity (%) [6, 13]: 50% | herbicidal activity (%) [7, 14]: 0% | herbicidal activity (%) [8, 13]: 25% | herbicidal activity (%) ([8]; solo S-metolachlor, use rate 500 g ai/ha): 20% | herbicidal activity (%) [9, 13]: 25%
